This note sets out measurements from US10870647B2, “Imidazopyridine derivative, method for preparing same, and pharmaceutical composition containing same as active ingredient for preventing or treating cancer” (DAEGU-GYEONGBUK MEDICAL INNOVATION FOUNDATION, priority 2016, dated 2020).

Read-outs that look alike come from different tables or passages of the source.

Common to all, as to assay: Kinase selectivity, scanMAX Kinase assay panel (DiscoverX), % control at 1 uM
What all share (type): binding

Assay [1] concerns the target T1, scanMAX Kinase assay panel (Homo sapiens, UniProt Q9H0K1).
T1 construct: purchased DiscoverX
Conditions: SIK2; 1 uM; read-out: Percent Control (%). A digest of the protocol: (§1)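 Single-point screen at 1 uM compound in DMSO. Lower % control means stronger inhibition, with the cutoff for activity set at <35%.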

Assay [2] concerns the target T2, scanMAX Kinase assay panel (Homo sapiens, UniProt Q8TD08).
T2 construct: purchased DiscoverX
T2 sequence (Q8TD08 1-544): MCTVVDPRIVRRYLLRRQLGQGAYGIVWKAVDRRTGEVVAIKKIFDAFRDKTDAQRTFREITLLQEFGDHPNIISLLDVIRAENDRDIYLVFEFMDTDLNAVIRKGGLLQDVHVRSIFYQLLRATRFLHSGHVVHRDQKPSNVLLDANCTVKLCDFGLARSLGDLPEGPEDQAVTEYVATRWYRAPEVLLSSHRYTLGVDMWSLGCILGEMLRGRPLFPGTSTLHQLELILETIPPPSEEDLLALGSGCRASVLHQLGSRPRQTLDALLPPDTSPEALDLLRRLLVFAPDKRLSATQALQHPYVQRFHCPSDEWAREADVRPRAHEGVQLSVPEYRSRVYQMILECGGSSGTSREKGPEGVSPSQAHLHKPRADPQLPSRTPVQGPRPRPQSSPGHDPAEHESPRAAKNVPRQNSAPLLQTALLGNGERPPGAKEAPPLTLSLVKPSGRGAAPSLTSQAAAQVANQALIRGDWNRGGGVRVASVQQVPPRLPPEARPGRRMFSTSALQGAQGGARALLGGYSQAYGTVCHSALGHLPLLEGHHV
As to conditions: ERK8; 1 uM; read-out: Percent Control (%). In short, it runs like this: as §1

The target in assay [3] is T3, scanMAX Kinase assay panel (Homo sapiens, UniProt Q9Y6E0).
T3 construct: purchased DiscoverX
As to conditions: MST3; 1 uM; read-out: Percent Control (%). A digest of the protocol:
as §1

Assay [4] concerns the target T4, scanMAX Kinase assay panel (Homo sapiens, UniProt Q8WU08).
T4 construct: purchased DiscoverX
As to conditions: YANK1; 1 uM; read-out: Percent Control (%). A digest of the protocol:
as §1

Assay [5] deals with T5, scanMAX Kinase assay panel (Homo sapiens, UniProt P07949).
T5 construct: purchased DiscoverX
Conditions: RET; 1 uM; read-out: Percent Control (%). A digest of the protocol: as §1

Assay [6] addresses T6, scanMAX Kinase assay panel (Homo sapiens, UniProt P36894).
T6 construct: purchased DiscoverX
As to conditions: BMPR1A; 1 uM; read-out: Percent Control (%). A digest of the protocol:
as §1

Assay [7] deals with T7, scanMAX Kinase assay panel (Homo sapiens, UniProt Q99558).
T7 construct: purchased DiscoverX
As to conditions: NIK; 1 uM; read-out: Percent Control (%). A digest of the protocol:
as §1

The target of assay [8] is T8, scanMAX Kinase assay panel (Homo sapiens, UniProt Q09013).
T8 construct: purchased DiscoverX
T8 sequence (Q09013 1-629): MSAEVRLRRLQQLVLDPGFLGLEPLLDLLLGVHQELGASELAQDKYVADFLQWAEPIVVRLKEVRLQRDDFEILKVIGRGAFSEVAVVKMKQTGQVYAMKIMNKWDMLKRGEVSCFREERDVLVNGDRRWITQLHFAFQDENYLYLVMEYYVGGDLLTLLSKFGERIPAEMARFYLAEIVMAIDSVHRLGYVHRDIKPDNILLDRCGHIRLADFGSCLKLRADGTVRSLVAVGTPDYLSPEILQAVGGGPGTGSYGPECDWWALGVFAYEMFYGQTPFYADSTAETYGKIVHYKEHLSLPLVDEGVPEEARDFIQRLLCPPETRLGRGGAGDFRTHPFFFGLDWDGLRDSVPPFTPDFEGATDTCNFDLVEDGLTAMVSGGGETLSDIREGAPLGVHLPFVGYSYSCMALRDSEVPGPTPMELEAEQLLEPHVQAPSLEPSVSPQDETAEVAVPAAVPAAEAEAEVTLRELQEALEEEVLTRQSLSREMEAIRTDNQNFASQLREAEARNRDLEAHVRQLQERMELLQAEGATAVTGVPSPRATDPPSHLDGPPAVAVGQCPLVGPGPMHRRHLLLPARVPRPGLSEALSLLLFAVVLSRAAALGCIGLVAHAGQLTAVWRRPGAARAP
Conditions: DMPK; 1 uM; read-out: Percent Control (%). A digest of the protocol: as §1

Assay [9] deals with T9, scanMAX Kinase assay panel (Homo sapiens, UniProt Q13557).
T9 construct: purchased DiscoverX
As to conditions: CAMK2D; 1 uM; read-out: Percent Control (%). In short, it runs like this:
as §1

Assay [10] has as its target T10, scanMAX Kinase assay panel (Homo sapiens, UniProt P0C1S8).
T10 construct: purchased DiscoverX
As to conditions: WEE2; 1 uM; read-out: Percent Control (%). In short, it runs like this: as §1

In assay [11] the target is T11, scanMAX Kinase assay panel (Homo sapiens, UniProt Q13554).
T11 construct: purchased DiscoverX
As to conditions: CAMK2B; 1 uM; read-out: Percent Control (%). A digest of the protocol: as §1

Assay [12] concerns the target T12, scanMAX Kinase assay panel (Homo sapiens, UniProt P00519, Q252H).
T12 construct: purchased DiscoverX
As to conditions: 1 uM, read-out: Percent Control (%). In short, it runs like this:
as §1

The target in assay [13] is T13, scanMAX Kinase assay panel (Homo sapiens, UniProt Q13163).
T13 construct: purchased DiscoverX
T13 sequence (Q13163 1-448): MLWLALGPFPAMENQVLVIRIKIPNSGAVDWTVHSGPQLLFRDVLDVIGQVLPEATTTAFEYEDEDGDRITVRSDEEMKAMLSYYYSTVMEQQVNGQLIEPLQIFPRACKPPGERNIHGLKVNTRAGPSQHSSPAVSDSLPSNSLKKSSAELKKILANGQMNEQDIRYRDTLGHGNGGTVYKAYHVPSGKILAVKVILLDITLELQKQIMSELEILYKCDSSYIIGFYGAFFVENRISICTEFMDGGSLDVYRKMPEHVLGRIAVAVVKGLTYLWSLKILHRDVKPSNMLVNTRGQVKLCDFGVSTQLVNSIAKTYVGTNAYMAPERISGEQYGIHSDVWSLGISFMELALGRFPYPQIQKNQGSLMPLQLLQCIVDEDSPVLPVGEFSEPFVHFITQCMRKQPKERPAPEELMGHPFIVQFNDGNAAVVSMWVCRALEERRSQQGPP
Conditions: MEK5; 1 uM; read-out: Percent Control (%). A digest of the protocol: as §1

T1 sequence (Q9H0K1 whole entry): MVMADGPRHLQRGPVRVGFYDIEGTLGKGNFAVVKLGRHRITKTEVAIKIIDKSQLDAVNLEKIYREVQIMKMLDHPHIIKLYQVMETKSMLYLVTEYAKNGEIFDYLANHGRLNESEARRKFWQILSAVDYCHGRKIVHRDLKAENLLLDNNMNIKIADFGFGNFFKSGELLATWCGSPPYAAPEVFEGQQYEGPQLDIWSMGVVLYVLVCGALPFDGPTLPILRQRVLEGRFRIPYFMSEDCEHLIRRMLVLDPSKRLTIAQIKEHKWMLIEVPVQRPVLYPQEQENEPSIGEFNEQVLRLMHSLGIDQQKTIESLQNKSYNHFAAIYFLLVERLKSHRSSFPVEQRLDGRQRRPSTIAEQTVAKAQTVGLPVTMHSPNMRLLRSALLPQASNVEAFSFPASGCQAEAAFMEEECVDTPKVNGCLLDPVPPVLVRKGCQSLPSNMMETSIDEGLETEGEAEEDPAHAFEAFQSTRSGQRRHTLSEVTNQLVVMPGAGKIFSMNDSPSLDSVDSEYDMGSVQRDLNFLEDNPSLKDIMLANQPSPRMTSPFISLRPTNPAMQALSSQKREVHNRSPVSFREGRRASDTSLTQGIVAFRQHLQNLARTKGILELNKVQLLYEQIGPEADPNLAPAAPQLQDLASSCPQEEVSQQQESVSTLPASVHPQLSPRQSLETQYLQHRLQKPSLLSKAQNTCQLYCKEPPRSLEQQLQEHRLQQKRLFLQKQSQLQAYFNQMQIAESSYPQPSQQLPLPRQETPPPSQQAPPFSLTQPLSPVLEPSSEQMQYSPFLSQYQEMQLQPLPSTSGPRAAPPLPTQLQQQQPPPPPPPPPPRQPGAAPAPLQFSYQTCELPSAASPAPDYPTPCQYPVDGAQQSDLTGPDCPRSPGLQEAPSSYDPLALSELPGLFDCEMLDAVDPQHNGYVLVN
T4 sequence (Q8WU08 whole entry): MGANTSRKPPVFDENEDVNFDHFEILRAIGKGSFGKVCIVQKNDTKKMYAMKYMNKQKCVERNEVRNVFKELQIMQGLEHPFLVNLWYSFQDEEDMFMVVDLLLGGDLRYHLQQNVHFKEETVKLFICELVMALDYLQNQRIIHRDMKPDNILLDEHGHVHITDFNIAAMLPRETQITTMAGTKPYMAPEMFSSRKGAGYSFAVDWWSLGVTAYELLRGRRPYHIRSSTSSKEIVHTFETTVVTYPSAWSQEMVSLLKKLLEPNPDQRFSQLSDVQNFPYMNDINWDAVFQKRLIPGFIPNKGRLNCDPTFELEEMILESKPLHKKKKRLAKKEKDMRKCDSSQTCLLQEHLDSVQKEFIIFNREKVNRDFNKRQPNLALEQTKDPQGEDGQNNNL
T9 sequence (Q13557 whole entry): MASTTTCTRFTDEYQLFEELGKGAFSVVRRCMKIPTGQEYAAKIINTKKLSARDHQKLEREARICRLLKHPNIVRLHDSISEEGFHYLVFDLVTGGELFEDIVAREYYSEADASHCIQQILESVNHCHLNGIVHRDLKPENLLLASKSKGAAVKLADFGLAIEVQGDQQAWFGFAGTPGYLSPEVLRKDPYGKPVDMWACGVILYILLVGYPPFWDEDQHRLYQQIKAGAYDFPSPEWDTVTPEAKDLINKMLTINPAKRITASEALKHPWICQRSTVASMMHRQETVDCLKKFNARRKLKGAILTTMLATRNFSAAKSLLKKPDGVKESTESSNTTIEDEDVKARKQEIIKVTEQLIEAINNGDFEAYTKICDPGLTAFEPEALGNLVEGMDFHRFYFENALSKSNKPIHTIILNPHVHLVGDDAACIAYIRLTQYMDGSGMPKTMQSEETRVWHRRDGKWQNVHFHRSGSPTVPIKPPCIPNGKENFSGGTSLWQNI
T10 sequence (P0C1S8 whole entry): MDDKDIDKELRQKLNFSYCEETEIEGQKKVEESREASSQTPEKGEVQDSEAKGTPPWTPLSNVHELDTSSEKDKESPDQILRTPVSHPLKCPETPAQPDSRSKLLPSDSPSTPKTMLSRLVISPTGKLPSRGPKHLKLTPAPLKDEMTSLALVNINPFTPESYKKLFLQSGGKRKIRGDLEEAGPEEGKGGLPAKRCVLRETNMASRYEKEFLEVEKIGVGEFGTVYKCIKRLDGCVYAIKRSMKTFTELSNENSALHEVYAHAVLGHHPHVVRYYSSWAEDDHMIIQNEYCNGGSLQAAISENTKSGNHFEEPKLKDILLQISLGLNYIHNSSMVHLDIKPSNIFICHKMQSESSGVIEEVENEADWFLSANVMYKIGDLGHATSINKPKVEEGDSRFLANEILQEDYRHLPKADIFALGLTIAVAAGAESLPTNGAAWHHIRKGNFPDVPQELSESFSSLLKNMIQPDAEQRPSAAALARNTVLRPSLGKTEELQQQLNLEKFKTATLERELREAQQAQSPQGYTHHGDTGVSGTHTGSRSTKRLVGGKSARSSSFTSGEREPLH
T3 sequence (Q9Y6E0 whole entry): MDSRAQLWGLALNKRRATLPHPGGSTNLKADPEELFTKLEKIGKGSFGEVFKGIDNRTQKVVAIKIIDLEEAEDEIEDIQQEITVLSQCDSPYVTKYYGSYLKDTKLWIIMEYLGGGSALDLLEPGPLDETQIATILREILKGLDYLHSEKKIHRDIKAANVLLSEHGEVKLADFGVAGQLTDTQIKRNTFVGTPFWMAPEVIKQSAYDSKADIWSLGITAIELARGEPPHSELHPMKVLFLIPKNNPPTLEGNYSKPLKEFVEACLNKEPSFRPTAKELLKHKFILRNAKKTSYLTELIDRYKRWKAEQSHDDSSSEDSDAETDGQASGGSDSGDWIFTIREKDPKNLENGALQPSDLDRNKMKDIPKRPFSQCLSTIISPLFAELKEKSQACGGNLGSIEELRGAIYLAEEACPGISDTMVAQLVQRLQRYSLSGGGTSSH
T11 sequence (Q13554 whole entry): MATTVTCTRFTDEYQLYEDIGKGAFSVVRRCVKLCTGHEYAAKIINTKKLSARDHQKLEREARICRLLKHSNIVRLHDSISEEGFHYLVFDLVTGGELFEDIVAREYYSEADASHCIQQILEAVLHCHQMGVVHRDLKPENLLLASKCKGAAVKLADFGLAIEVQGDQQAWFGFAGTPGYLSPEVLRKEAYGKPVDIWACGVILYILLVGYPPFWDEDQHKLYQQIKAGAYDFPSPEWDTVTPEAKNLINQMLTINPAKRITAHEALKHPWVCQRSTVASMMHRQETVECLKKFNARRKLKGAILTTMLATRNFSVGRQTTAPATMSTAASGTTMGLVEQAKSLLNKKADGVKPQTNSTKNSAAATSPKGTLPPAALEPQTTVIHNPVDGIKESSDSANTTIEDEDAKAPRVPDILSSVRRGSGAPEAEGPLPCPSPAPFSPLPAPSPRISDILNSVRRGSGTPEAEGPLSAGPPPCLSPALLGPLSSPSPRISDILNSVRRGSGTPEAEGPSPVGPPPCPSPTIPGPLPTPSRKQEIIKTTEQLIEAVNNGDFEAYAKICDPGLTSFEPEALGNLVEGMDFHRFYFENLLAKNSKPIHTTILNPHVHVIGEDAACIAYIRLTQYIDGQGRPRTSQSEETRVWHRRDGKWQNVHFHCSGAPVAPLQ
T5 sequence (P07949 29-1114): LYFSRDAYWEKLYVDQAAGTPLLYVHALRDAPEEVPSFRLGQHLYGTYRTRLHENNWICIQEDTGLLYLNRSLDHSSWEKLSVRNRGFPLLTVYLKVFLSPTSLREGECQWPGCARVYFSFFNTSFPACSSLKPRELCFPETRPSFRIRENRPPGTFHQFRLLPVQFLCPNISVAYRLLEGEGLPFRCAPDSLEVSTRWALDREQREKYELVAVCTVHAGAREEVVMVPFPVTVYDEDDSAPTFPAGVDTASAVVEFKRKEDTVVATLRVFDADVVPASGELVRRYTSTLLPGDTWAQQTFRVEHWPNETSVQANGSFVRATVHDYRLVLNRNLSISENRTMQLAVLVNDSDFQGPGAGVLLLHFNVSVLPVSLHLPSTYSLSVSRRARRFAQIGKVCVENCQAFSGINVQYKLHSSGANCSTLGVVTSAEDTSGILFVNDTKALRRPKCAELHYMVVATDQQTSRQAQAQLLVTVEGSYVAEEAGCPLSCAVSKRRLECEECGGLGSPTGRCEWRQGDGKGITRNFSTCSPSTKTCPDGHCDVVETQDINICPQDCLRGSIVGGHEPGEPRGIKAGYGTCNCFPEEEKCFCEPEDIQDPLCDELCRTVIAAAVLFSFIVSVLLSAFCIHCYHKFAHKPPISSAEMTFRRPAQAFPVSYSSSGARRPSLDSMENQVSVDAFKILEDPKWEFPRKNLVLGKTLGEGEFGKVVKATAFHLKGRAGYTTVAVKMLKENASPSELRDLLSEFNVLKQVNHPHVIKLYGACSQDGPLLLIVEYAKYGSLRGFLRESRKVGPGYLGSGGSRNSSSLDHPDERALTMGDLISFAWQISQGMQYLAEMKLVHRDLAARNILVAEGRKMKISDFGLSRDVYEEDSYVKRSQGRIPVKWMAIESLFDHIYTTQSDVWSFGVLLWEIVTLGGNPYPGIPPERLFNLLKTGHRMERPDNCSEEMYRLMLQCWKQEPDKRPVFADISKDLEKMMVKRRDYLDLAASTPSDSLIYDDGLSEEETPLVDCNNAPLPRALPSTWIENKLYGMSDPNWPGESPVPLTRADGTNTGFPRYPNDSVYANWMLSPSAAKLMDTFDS

As for `Cc1ccc(C(=O)Nc2ccc(CN3CCN(C)CC3)c(C(F)(F)F)c2)cc1C#Cc1cnc2c(Nc3cnn(C)c3)cccn12` [Example 1, 4-methyl-3-((8-((1-methyl-1H-pyrazol-4-yl)amino)imidazo[1,2-a]pyridin-3-yl)ethynyl)-N-(4-((4-methylpiperazin-1-yl)methyl)-3-(trifluoromethyl)phenyl)benzamide], the remaining binding at 1 µM in assay [1] came out at 44%; in [2], 29%; in assay [3], 62%; in assay [4], 69%; in assay [5] it was 0%; in assay [6] it was 77%. The remaining binding at 1 µM in assay [7] turned out to be 91%; in assay [8] it was 100%; in assay [9] it was 82%; in assay [10], 60%; in assay [11], 76%; in assay [12] (ABL1 (Q252H)-nonphosphorylated), 7%. Also, the remaining binding at 1 µM in assay [12] (ABL1 (Q252H)-phosphorylated) worked out at 0%; in assay [13], 1%.
As to `Cc1cn(-c2cc(NC(=O)c3ccc(C)c(C#Cc4cnc5c(Nc6cnn(C)c6)cccn45)c3)cc(C(F)(F)F)c2)cn1` [Example 12, 4-methyl-N-(3-(4-methyl-1H-imidazol-1-yl)-5-(trifluoromethyl)phenyl)-3-((8-((1-methyl-1H-pyrazol-4-yl)amino)imidazo[1,2-a]pyridin-3-yl)ethynyl)benzamide], the remaining binding at 1 µM was 58% in [1]; 71% in assay [2]; 86% in [3]; 98% in assay [4]; 1% in assay [5]; 60% in assay [6]. The remaining binding at 1 µM is 85% in assay [7]; 96% in assay [8]; 78% in [9]; 80% in [10]; 96% in assay [11]; 3% in [12] (ABL1 (Q252H)-nonphosphorylated). In addition, the remaining binding at 1 µM in [12] (ABL1 (Q252H)-phosphorylated) came out at 14%; in assay [13] it was 1%.
Regarding `Cc1ccc(NC(=O)C2(C(=O)Nc3ccc(F)cc3)CC2)cc1C#Cc1cnc2c(Nc3cnn(C(C)C)c3)cccn12` [Example 78], the remaining binding at 1 µM is 53% in assay [1]; 87% in assay [2]; 100% in assay [3]; 84% in assay [4]; 97% in assay [5]; 94% in [6]. Besides, the remaining binding at 1 µM in assay [7] turned out to be 97%; in assay [8], 92%; in assay [9] it was 100%; in assay [10] it was 100%; in assay [11] it was 100%; in [12] (ABL1 (Q252H)-nonphosphorylated) it was 6%. In addition, the remaining binding at 1 µM amounted to 91% in assay [12] (ABL1 (Q252H)-phosphorylated) and 21% in [13].
